Data: patent publication US4298739A, “Novel carbostyril derivatives” (priority 1977, dated 1981)

Experiments:
[1] = tested on: rabbit platelet; assay: ADP-induced aggregation in rabbit platelets (AG-II Aggregometer); type: cell-based; conditions: Oryctolagus cuniculus, Platelet, read-out: Inhibition effect on ADP-induced aggregation in rabbit platelet; for inhibition at 100 µM (stock): 10^-4 mole; for inhibition at 10 µM (stock): 10^-5 mole; for inhibition at 1 µM (stock): 10^-6 mole
Description: (§1) The platelet aggregation inhibitory effect is measured by using AG-II Aggregometer (manufactured by Bryston Manufacturing Co.). The blood sample used for the test is a 1/9 (by volume) mixture of sodium citrate and whole blood collected from rabbit. Said sample is subjected to 10-minute centrifugal separation at 1,000 r.p.m. to obtain a platelet rich plasma (PRP). The thus obtained PRP is separated, and the remaining blood sample is further subjected to 15-minute centrifugal separation at 3,000 r.p.m. to obtain a platelet poor plasma (PPP).
(§2) The number of platelets in the PRP is counted by the Brecher-Clonkite Method, and the PRP is diluted with the PPP to prepare a PRP sample with platelet concentration of 300,000/mm^3 for the adenosine diphosphate (ADP)-induced aggregation test. There is also prepared a PRP sample with platelet concentration of 450,000/mm^3 for the collagen-induced aggregation test.
(§3) 0.6 ml of said PRP sample is added into 0.01 ml of a solution of a test compound of a predetermined concentration and the mixture is placed in a 37° C. thermostat for one minute. Then 0.07 ml of an ADP or collagen solution is added to the mixture. Transmittance of this mixture is determined and the change of transmittance is recorded by using the aggregometer at stirrer speed of 1,100 r.p.m. In this test, Auren Beronal buffer (pH 7.35) is used for the preparation of the ADP or collagen solution. ADP is adjusted to a concentration of 7.5×10^-5 M, and the collagen solution is prepared by triturating 100 mg of collagen with 5 ml of said buffer and the supernatant is used as collagen inducer. Adenosine and acetylsalicylic acid are used as controls for the ADP-induced aggregation test and the collagen-induced aggregation test, respectively. The platelet aggregation inhibitory effect is measured in terms of percent inhibition with respect to the aggregation rate of the controls. The aggregation rate is calculated from the following formula:
(§4) Aggregation rate=(c-a)/(b-a)×100
(§5) b: transmittance of PRP containing a test compound and an aggregation inducer
(§6) The inhibitory effect of the tested compounds on collagen-induced aggregation in rabbit platelets is shown in Table 1, and such effect on ADP-induced aggregation is shown in Table 2. The compounds tested are as follows.

[2] = tested on: rabbit platelet; assay: Collagen-induced aggregation in rabbit platelets (AG-II Aggregometer); type: cell-based; conditions: Oryctolagus cuniculus, Platelet, read-out: Inhibition effect on collagen induced aggregation in rabbit platelet; for inhibition at 10 µM (stock): 10^-5 mole; for inhibition at 1 µM (stock): 10^-6 mole; for inhibition at 100 µM (stock): 10^-4 mole
Description: as §1, §2, §3, §4, §5, §6

[3] = Concentration in blood of male beagle dogs; type: in vivo; conditions: 30 mg/kg water suspension; for concentration at 1 h / concentration at 2 h / concentration at 4 h / concentration at 6 h / concentration at 8 h / concentration at 12 h: dog, plasma, 30 mg/kg; for Concentration in blood: Beagle dog
Description: (§7) A water suspension of test compound was administered at the dose of 30 mg/kg to the overnight fasted male Wister rats and male beagle dogs, and after a predetermined period of time, blood was collected from said animals to obtain plasma. 2 to 3 Milliliters of 0.1 N-NaOH and 2 ml of CHCl3 were added to 1 ml of the obtained plasma, and the mixture was shaken and extracted in a shaker for 2 hours, and after centrifugal separation, the organic layer was washed with 2 ml of 0.1 N-HCl. This organic layer was then subjected to a freezing and thawing treatment, and after evaporating chloroform under nitrogen stream, the residue was redissolved in 100 μl of chloroform and spotted on a thin layer plate of "Silica Gel 60 F254 " manufactured by Merck & Co., Inc. This was developed in a chloroform: butanol mixed solvent (5:1) and determined by measuring the spots with same Rf value as the test compound according to the absorbance method by using Shimazu CS-910 Thin Layer Chromato-scanner,and therefrom the concentration (μg/ml) of test compound A in blood was determined.

[4] = Acute toxicity test, oral administration to mice; type: in vivo; conditions: mouse, in vivo, Male mice
Description: The test compounds were administered orally to the mice and LD50 (mg/kg) of the compounds was determined.

[5] = Concentration in blood of male Wister rats; type: in vivo; conditions: 30 mg/kg water suspension; for concentration at 1 h / concentration at 2 h / concentration at 4 h / concentration at 6 h / concentration at 12 h / concentration at 8 h: rat, plasma, 30 mg/kg; for Concentration in blood: Rat
Description: as §7

Row | Structure (SMILES) | inhibition at 100 µM (stock) [1] [%] | inhibition at 10 µM (stock) [1] [%] | inhibition at 1 µM (stock) [1] [%] | inhibition at 10 µM (stock) [2] [%] | inhibition at 1 µM (stock) [2] [%] | concentration at 1 h ([3]; 1 hr.) [ng/mL] | concentration at 2 h ([3]; 2 hr.) [ng/mL] | concentration at 4 h ([3]; 4 hr.) [ng/mL] | concentration at 6 h [3] [ng/mL] | concentration at 8 h [3] [ng/mL] | concentration at 12 h [3] [ng/mL] | LD50 [4] [mg/kg] | concentration at 1 h [5] [ng/mL] | concentration at 2 h ([5]; 2 hr.) [ng/mL] | concentration at 4 h ([5]; 4 hr.) [ng/mL] | concentration at 6 h [5] [ng/mL] | concentration at 12 h [5] [ng/mL] | inhibition at 100 µM (stock) [2] [%] | other results
1 | CC1CCCCC1N(C)C(=O)CCCOc1ccc2[nH]c(=O)ccc2c1 (stereo not shown) [compound 1, 6-{3-[N-Methyl-N-(2-methylcyclohexyl)aminocarbonyl]propoxy}carbostyril] | 100 | 73 | 42.4 | 100 | 100 | 280 | 310 | 210 | 130 | 80 | 50 | > 1000 | 1050 | 1620 | 940 | 530 | 480 | – | inhibition at 0.1 µM (stock) ([1]; 10^-7 mole): 4.3%; inhibition at 0.1 µM (stock) ([2]; 10^-7 mole): 21.1%
2 | O=C1CCc2cc(OCCCC(=O)N(C3CCCCC3)C3CCCCC3)ccc2N1 [compound 18, 6-[3-(N,N-Dicyclohexylaminocarbonyl)propoxy]-3,4-dihydrocarbostyril] | 86.4 | 37.5 | 12.6 | 59.4 | 50 | 360 | 230 | 320 | 170 | 130 | 60 | > 1000 | 1320 | 1740 | 1020 | 690 | 420 | 87.5 | concentration at 8 h [5]: 560 ng/mL
3 | CCN(C(=O)CCCOc1ccc2[nH]c(=O)ccc2c1)c1ccccc1 [compound 20, 6-[3-(N-Ethylanilinocarbonyl)propoxy]carbostyril] | 82.5 | 31.7 | 13.5 | 76.3 | 43.2 | 320 | – | – | 80 | 50 | – | > 1000 | 950 | 1370 | 920 | 460 | 280 | 91.3 | –
4 | CN(C(=O)CCCOc1cccc2c1CCC(=O)N2)C1CCCCC1 [compound 23, 5-[3-(N-Methyl-N-cyclohexylaminocarbonyl)propoxy]-3,4-dihydrocarbostyril] | 73.6 | 26.1 | 8.7 | 58.7 | 13.5 | 430 | 290 | 210 | 140 | 50 | 70 | > 1000 | 1530 | 2240 | 940 | 540 | 520 | 76.5 | concentration at 8 h [5]: 390 ng/mL
5 | CCOC(=O)CCCOc1ccc2c(c1)CCC(=O)N2 [compound 29, 6-(3-Ethoxycarbonylpropoxy)-3,4-dihydrocarbostyril, reference compound] | 100 | – | 10 | 38 | 8 | 10 | – | – | – | – | – | > 1000 | 10 | – | – | – | – | – | Concentration in blood ([3]; 2 hr.): 0 ng/mL; Concentration in blood ([3]; 4 hr.): 0 ng/mL; Concentration in blood ([5]; 2 hr.): 0 ng/mL; Concentration in blood ([5]; 4 hr.): 0 ng/mL
6 | CCOC(=O)CCCOc1ccc2[nH]c(=O)ccc2c1 [compound 34, 6-(3-Ethoxycarbonylpropoxy)carbostyril, reference compound] | 100 | 90 | 25 | 86 | 18 | – | – | – | – | – | – | > 1000 | 10 | – | – | – | – | 100 | Concentration in blood ([3]; 1 hr.): 0 ng/mL; Concentration in blood ([3]; 2 hr.): 0 ng/mL; Concentration in blood ([5]; 2 hr.): 0 ng/mL; Concentration in blood ([5]; 4 hr.): 0 ng/mL
7 | CCN1C(=O)CCc2c(OCCCC(=O)NCc3ccccc3)cccc21 [compound 44, 1-Ethyl-5-[3-(N-benzylaminocarbonyl)propoxy]-3,4-dihydrocarbostyril, reference compound] | 14 | 6 | 0 | 0 | 0 | – | – | – | – | – | – | 500 to 600 | – | – | – | – | – | 7 | –
8 | CCCNC(=O)CC(C)COc1ccc2c(c1)CCC(=O)N2 (stereo not shown) [compound 45, 6-[3-(N-Propylaminocarbonyl)-2-methylpropoxy]-3,4-dihydrocarbostyril, reference compound] | 32 | 17 | 9 | 5 | 0 | – | – | – | – | – | – | 500 to 800 | – | – | – | – | – | 12 | –
